Reference: ChEMBL document CHEMBL4396913, “Synthesis and biological evaluation of hybrid quinolone-based quaternary ammonium antibacterial agents” (Eur J Med Chem, 2019)
Activity calls are given as the source filed them. The calls are words filed in the database; no cut-off is given here.

Key:
[1] = tested on: Staphylococcus aureus; assay: Antibiofilm activity against Staphylococcus aureus ATCC 25923 assessed as reduction in biofilm biomass at >2.5 uM incubated for 24 hrs compound added prior to bacterial biofilm formation by crystal violet staining based assay; assay type: functional, organism-based
[2] = tested on: Bacillus spizizenii; assay: Bactericidal activity against Bacillus subtilis ATCC 6633 cultured in MH medium assessed as reduction in bacterial survival incubated for 48 hrs by microbroth dilution method; assay type: functional; settings: ATCC 6633, 48 h
[3] = tested on: Bacillus spizizenii; assay: Antibacterial activity against Bacillus subtilis ATCC 6633 cultured in MH medium assessed as reduction in bacterial growth incubated for 48 hrs by microbroth dilution method; assay type: functional; settings: ATCC 6633, 48 h
[4] = tested on: Staphylococcus aureus; assay: Antibacterial activity against Staphylococcus aureus ATCC 6538 cultured in MH medium assessed as reduction in bacterial growth incubated for 48 hrs by microbroth dilution method; assay type: functional; settings: ATCC 6538, 48 h
[5] = tested on: Escherichia coli; assay: Bactericidal activity against Escherichia coli ATCC 8739 cultured in MH medium assessed as reduction in bacterial survival incubated for 48 hrs by microbroth dilution method; assay type: functional; settings: ATCC 8739, 48 h
[6] = molecular target: T1, DNA gyrase (Escherichia coli) (UniProt P0AES6+P0AES4); assay: Inhibition of Escherichia coli DNA gyrase super-coiling activity using relaxed pNO1 DNA as substrate assessed as enzyme residual activity at 1 uM incubated for 30 mins by fluorescence assay relative to control; assay type: protein-complex assay
[7] = tested on: Streptococcus pneumoniae; assay: Bactericidal activity against Streptococcus pneumoniae cultured in MH medium assessed as reduction in bacterial survival incubated for 48 hrs by microbroth dilution method; assay type: functional
[8] = tested on: Staphylococcus aureus; assay: Bactericidal activity against methicillin resistant Staphylococcus aureus 6347 cultured in MH medium assessed as reduction in bacterial survival incubated for 48 hrs by microbroth dilution method; assay type: functional; settings: Staphylococcus aureus, 6347, 48 h
[9] = tested on: Escherichia coli; assay: Antibacterial activity against Escherichia coli ATCC 8739 cultured in MH medium assessed as reduction in bacterial growth incubated for 48 hrs by microbroth dilution method; assay type: functional; settings: ATCC 8739, 48 h
[10] = tested on: Staphylococcus epidermidis; assay: Antibacterial activity against methicillin resistant Staphylococcus epidermidis ATCC 13199 cultured in MH medium assessed as reduction in bacterial growth incubated for 48 hrs by microbroth dilution method; assay type: functional; settings: ATCC 13199, 48 h
[11] = tested on: Staphylococcus aureus; assay: Biofilm degradation activity against Staphylococcus aureus ATCC 6538 assessed as biofilm formation at 4 times antibacterial MIC incubated for 24 hrs compound added post-biofilm formation by total biomass crystal violet staining-based method; assay type: functional
[12] = tested on: Pseudomonas aeruginosa; assay: Biofilm degradation activity against Pseudomonas aeruginosa ATCC 9027 assessed as biofilm formation at 4 times antibacterial MIC incubated for 24 hrs compound added post-biofilm formation by total biomass crystal violet staining-based method; assay type: functional
[13] = tested on: Staphylococcus epidermidis; assay: Bactericidal activity against Staphylococcus epidermidis ATCC 14990 cultured in MH medium assessed as reduction in bacterial survival incubated for 48 hrs by microbroth dilution method; assay type: functional; settings: ATCC 14990, 48 h
[14] = tested on: Staphylococcus aureus; assay: Biofilm degradation activity against Staphylococcus aureus ATCC 6538 assessed as biofilm formation at 2 times antibacterial MIC incubated for 24 hrs compound added post-biofilm formation by total biomass crystal violet staining-based method; assay type: functional
[15] = tested on: Staphylococcus aureus; assay: Bactericidal activity against methicillin resistant Staphylococcus aureus N315 cultured in MH medium assessed as reduction in bacterial survival incubated for 48 hrs by microbroth dilution method; assay type: functional; settings: N315, 48 h
[16] = tested on: Staphylococcus epidermidis; assay: Bactericidal activity against methicillin resistant Staphylococcus epidermidis ATCC 13199 cultured in MH medium assessed as reduction in bacterial survival incubated for 48 hrs by microbroth dilution method; assay type: functional; settings: ATCC 13199, 48 h
[17] = tested on: HEK293; assay: Cytotoxicity against human HEK293 cells assessed as changes in cell morphology upto 20 uM incubated for 72 hrs by MTT assay; assay type: cell-based; settings: hek293, 72 h
[18] = tested on: Serratia marcescens; assay: Antibacterial activity against Serratia marcescens ATCC 12795 cultured in MH medium assessed as reduction in bacterial growth incubated for 48 hrs by microbroth dilution method; assay type: functional; settings: ATCC 12795, 48 h
[19] = tested on: Staphylococcus aureus; assay: Antibiofilm activity against Staphylococcus aureus ATCC 25923 assessed as reduction in biofilm viability at 2.5 to 20 uM incubated for 24 hrs compound added prior to bacterial biofilm formation by resazurin staining based assay relative to control; assay type: functional
[20] = molecular target: T1, DNA gyrase (Escherichia coli); assay: Inhibition of Escherichia coli DNA gyrase super-coiling activity using relaxed pNO1 DNA as substrate assessed as enzyme residual activity at 10 uM incubated for 30 mins by fluorescence assay relative to control; assay type: protein-complex assay
[21] = tested on: Staphylococcus aureus; assay: Antibiofilm activity against Staphylococcus aureus ATCC 6538 assessed as biofilm formation at 0.5 times antibacterial MIC incubated for 24 hrs compound added prior to bacterial biofilm formation by total biomass crystal violet staining-based method relative to control; assay type: functional
[22] = tested on: Pseudomonas aeruginosa; assay: Antibacterial activity against Pseudomonas aeruginosa ATCC 9027 cultured in MH medium assessed as reduction in bacterial growth incubated for 48 hrs by microbroth dilution method; assay type: functional; settings: ATCC 9027, 48 h
[23] = tested on: Pseudomonas aeruginosa; assay: Biofilm degradation activity against Pseudomonas aeruginosa ATCC 9027 assessed as biofilm formation at antibacterial MIC incubated for 24 hrs compound added post-biofilm formation by total biomass crystal violet staining-based method; assay type: functional
[24] = tested on: Staphylococcus aureus; assay: Antibacterial activity against methicillin resistant Staphylococcus aureus 6347 cultured in MH medium assessed as reduction in bacterial growth incubated for 48 hrs by microbroth dilution method; assay type: functional; settings: Staphylococcus aureus, 6347, 48 h
[25] = tested on: Proteus vulgaris; assay: Antibacterial activity against Proteus vulgaris NCTC 4635 cultured in MH medium assessed as reduction in bacterial growth incubated for 48 hrs by microbroth dilution method; assay type: functional; settings: NCTC 4635, 48 h
[26] = tested on: Staphylococcus aureus; assay: Bactericidal activity against Staphylococcus aureus ATCC 6538 cultured in MH medium assessed as reduction in bacterial survival incubated for 48 hrs by microbroth dilution method; assay type: functional; settings: ATCC 6538, 48 h
[27] = tested on: Staphylococcus aureus; assay: Antibiofilm activity against Staphylococcus aureus ATCC 6538 assessed as biofilm formation at antibacterial MIC incubated for 24 hrs compound added prior to bacterial biofilm formation by total biomass crystal violet staining-based method relative to control; assay type: functional
[28] = tested on: Pseudomonas aeruginosa; assay: Antibiofilm activity against Pseudomonas aeruginosa ATCC 9027 assessed as biofilm formation at 0.5 times antibacterial MIC incubated for 24 hrs compound added prior to bacterial biofilm formation by total biomass crystal violet staining-based method relative to control; assay type: functional
[29] = tested on: Pseudomonas aeruginosa; assay: Biofilm degradation activity against Pseudomonas aeruginosa ATCC 9027 assessed as biofilm formation at 2 times antibacterial MIC incubated for 24 hrs compound added post-biofilm formation by total biomass crystal violet staining-based method; assay type: functional
[30] = tested on: Proteus vulgaris; assay: Bactericidal activity against Proteus vulgaris NCTC 4635 cultured in MH medium assessed as reduction in bacterial survival incubated for 48 hrs by microbroth dilution method; assay type: functional; settings: NCTC 4635, 48 h
[31] = tested on: Serratia marcescens; assay: Bactericidal activity against Serratia marcescens ATCC 12795 cultured in MH medium assessed as reduction in bacterial survival incubated for 48 hrs by microbroth dilution method; assay type: functional; settings: ATCC 12795, 48 h
[32] = tested on: Staphylococcus aureus; assay: Antibacterial activity against methicillin resistant Staphylococcus aureus N315 cultured in MH medium assessed as reduction in bacterial growth incubated for 48 hrs by microbroth dilution method; assay type: functional; settings: N315, 48 h
[33] = tested on: Staphylococcus epidermidis; assay: Antibacterial activity against Staphylococcus epidermidis ATCC 14990 cultured in MH medium assessed as reduction in bacterial growth incubated for 48 hrs by microbroth dilution method; assay type: functional; settings: ATCC 14990, 48 h
[34] = tested on: Pseudomonas aeruginosa; assay: Antibiofilm activity against Pseudomonas aeruginosa ATCC 9027 assessed as biofilm formation at antibacterial MIC incubated for 24 hrs compound added prior to bacterial biofilm formation by total biomass crystal violet staining-based method relative to control; assay type: functional
[35] = Lipophilicity, log k of the compound at 100 ug/ml by micellar electrokinetic chromatography; assay type: physicochemical

Structure (SMILES)	inhibition [1]	MBC [2] [µg/mL]	MIC [3] [µg/mL]	MIC [4] [µg/mL]	MBC [5] [µg/mL]	Activity [6] [%]	MBC [7] [µg/mL]	MBC [8] [µg/mL]	MIC [9] [µg/mL]	MIC [10] [µg/mL]	Activity [11] [%]	Activity [12] [%]	MBC [13] [µg/mL]	Activity [14] [%]	MBC [15] [µg/mL]	MBC [16] [µg/mL]	Activity [17]	MIC [18] [µg/mL]	inhibition (INH) [19] [%]	Activity [20] [%]	other results
O=C(O)C1=Cc2ccccc2N2C[N+]3(CCN(c4cc5c(cc4F)c(=O)c(C(=O)O)cn5C4CC4)CC3)N=C12.[Cl-]	Active	2	1	4	2	97	512	2	2	1	10	30	2	28	4	1	Non-Toxic	1	100	34	Activity [21]: 6%; MIC [22]: 2 µg/mL; Activity [23]: 49%; MIC [24]: 2 µg/mL; MIC [25]: 0.063 µg/mL; MBC [26]: 4 µg/mL; Activity [27]: 6%; Activity [28]: 26%; Activity [29]: 39%; MBC [30]: 0.063 µg/mL; MBC [31]: 2 µg/mL; MIC [32]: 4 µg/mL; MIC [33]: 2 µg/mL; Activity [34]: 13%; log K [35]: -0.1527
CCn1cc(C(=O)O)c(=O)c2cc(F)c(N3CC[N+]4(CN5C(=N4)C(C(=O)O)=Cc4ccccc45)C(C)C3)c(F)c21.[Cl-] (stereo not given)	Active	0.5	0.5	2	0.5	97	512	16	0.25	1	6	47	4	44	2	2	Non-Toxic	2	100	11	Activity [21]: 47%; MIC [22]: 1 µg/mL; Activity [23]: 65%; MIC [24]: 4 µg/mL; MIC [25]: 0.125 µg/mL; MBC [26]: 2 µg/mL; Activity [27]: 69%; Activity [28]: 73%; Activity [29]: 51%; MBC [30]: 0.125 µg/mL; MBC [31]: 2 µg/mL; MIC [32]: 2 µg/mL; MIC [33]: 4 µg/mL; Activity [34]: 53%; log K [35]: -0.265
CCn1cc(C(=O)O)c(=O)c2cc(F)c(N3CC[N+]4(CC3)CN3C(=N4)C(C(=O)O)=Cc4ccccc43)nc21.[Cl-]	Active	2	2	8	2	100	512	16	1	2	16	42	4	21	8	2	Non-Toxic	8	100	73	Activity [21]: 35%; MIC [22]: 1 µg/mL; Activity [23]: 61%; MIC [24]: 4 µg/mL; MIC [25]: 0.25 µg/mL; MBC [26]: 8 µg/mL; Activity [27]: 18%; Activity [28]: 52%; Activity [29]: 43%; MBC [30]: 0.5 µg/mL; MBC [31]: 16 µg/mL; MIC [32]: 8 µg/mL; MIC [33]: 4 µg/mL; Activity [34]: 16%; log K [35]: -0.2387
